Assay results reported in paper PMC4193772, “Dual Effects of Alpha-Arbutin on Monophenolase and Diphenolase Activities of Mushroom Tyrosinase” (PLoS ONE, 2014).

How the values were obtained:
mushroom tyrosinase [1] = system: T1, mushroom tyrosinase; assay: dopachrome formation at […] nm, diphenolase activity, Lineweaver-Burk; assay type: biochemical; settings: no α-arbutin, 6.67 µg/mL enzyme, 50 mM phosphate pH 6.8, 30°C, air-saturated; apparent Km
T1 construct: gene PPO3

mushroom tyrosinase [2] = biological target: T1, mushroom tyrosinase; assay: dopachrome formation at […] nm, monophenolase activity; assay type: biochemical; settings: 0.5 mM L-tyrosine, 20 µg/mL enzyme, 50 mM phosphate pH 6.8, 30°C, air-saturated, proposed suicide substrate

Compound	Km (mushroom tyrosinase [1])	IC50 (mushroom tyrosinase [2])
N[C@@H](Cc1ccc(O)c(O)c1)C(=O)O [L-Dopa]	3.92 mM	
OC[C@H]1O[C@H](Oc2ccc(O)cc2)[C@H](O)[C@@H](O)[C@@H]1O [α-arbutin]		4.5 mM
